In ChEMBL document CHEMBL3885881, “DrugMatrix”:

Species: Rattus norvegicus
Experiment: DrugMatrix - Regimen: Daily Repeat
Type: toxicity, organism-based, Sprague-Dawley
Parameters: regimen Daily Repeat, gender Male, age 6-8 weeks
Conditions: in vivo, po, 60 mg/kg, route oral GAVAGE, dose level Low, vehicle 100 % WATER; for ABSOLUTE BASOPHIL / ABSOLUTE EOSINOPHIL / ABSOLUTE LYMPHOCYTE / ABSOLUTE MONOCYTE / ABSOLUTE SEGMENTED NEUTROPHIL / BASOPHIL / EOSINOPHIL / ERYTHROCYTE COUNT / HEMATOCRIT / HEMOGLOBIN / LEUKOCYTE COUNT / LYMPHOCYTE / MEAN CORPUSCULAR HEMOGLOBIN / MEAN CORPUSCULAR HEMOGLOBIN CONCENTRATION / MEAN CORPUSCULAR VOLUME / MONOCYTE / NEUTROPHIL / NUCLEATED RED BLOOD CELLS / PLATELET COUNT: tissue Blood; for ALANINE AMINOTRANSFERASE / ALBUMIN / ALKALINE PHOSPHATASE / ASPARTATE AMINOTRANSFERASE / BLOOD UREA NITROGEN / CARBON DIOXIDE / CHLORIDE / CHOLESTEROL / CREATINE PHOSPHOKINASE / CREATININE / GLUCOSE / LACTATE DEHYDROGENASE / LIPASE / PHOSPHORUS / POTASSIUM / SODIUM / TOTAL BILIRUBIN / TOTAL PROTEIN / URIC ACID: tissue Plasma

CC(CCc1ccccc1)NCC(O)c1ccc(O)c(C(N)=O)c1 (stereo unspecified) [LABETALOL]
ABSOLUTE BASOPHIL (72 h, time 3 day): 0 CELLS/uL | ABSOLUTE EOSINOPHIL (72 h, time 3 day): 201.33 CELLS/uL | ABSOLUTE LYMPHOCYTE (72 h, time 3 day): 14909.33 CELLS/uL | ABSOLUTE MONOCYTE (72 h, time 3 day): 67 CELLS/uL | ABSOLUTE SEGMENTED NEUTROPHIL (72 h, time 3 day): 1589 CELLS/uL | BASOPHIL (72 h, time 3 day): 0% | EOSINOPHIL (72 h, time 3 day): 1.33% | ERYTHROCYTE COUNT (72 h, time 3 day): 5.26 x10E6/uL | HEMATOCRIT (72 h, time 3 day): 33.47% | HEMOGLOBIN (72 h, time 3 day): 13 G/DL | LEUKOCYTE COUNT (72 h, time 3 day): 16.77 x10E3/uL | LYMPHOCYTE (72 h, time 3 day): 89.33% | MEAN CORPUSCULAR HEMOGLOBIN (72 h, time 3 day): 24.77 pg | MEAN CORPUSCULAR HEMOGLOBIN CONCENTRATION (72 h, time 3 day): 38.9 G/DL | MEAN CORPUSCULAR VOLUME (72 h, time 3 day): 63.63 fL | MONOCYTE (72 h, time 3 day): 0.33% | NEUTROPHIL (72 h, time 3 day): 9% | NUCLEATED RED BLOOD CELLS (72 h, time 3 day): 0 /100WBC | PLATELET COUNT (72 h, time 3 day): 1299.67 x10E3/uL | ALANINE AMINOTRANSFERASE (72 h, time 3 day): 51.67 u/L | ALBUMIN (72 h, time 3 day): 4.23 G/DL | ALKALINE PHOSPHATASE (72 h, time 3 day): 301.67 u/L | ASPARTATE AMINOTRANSFERASE (72 h, time 3 day): 83.67 u/L | BLOOD UREA NITROGEN (72 h, time 3 day): 14.33 mg/dL | CARBON DIOXIDE (72 h, time 3 day): 31.67 mmol/L | CHLORIDE (72 h, time 3 day): 98.67 MEQ/L | CHOLESTEROL (72 h, time 3 day): 81.33 mg/dL | CREATINE PHOSPHOKINASE (72 h, time 3 day): 278 u/L | CREATININE (72 h, time 3 day): 0.27 mg/dL | GLUCOSE (72 h, time 3 day): 142.33 mg/dL | LACTATE DEHYDROGENASE (72 h, time 3 day): 160 u/L | LIPASE (72 h, time 3 day): 9.33 u/L | PHOSPHORUS (72 h, time 3 day): 12.9 mg/dL | POTASSIUM (72 h, time 3 day): 6.47 MEQ/L | SODIUM (72 h, time 3 day): 145.3 MEQ/L | TOTAL BILIRUBIN (72 h, time 3 day): 0.2 mg/dL | TOTAL PROTEIN (72 h, time 3 day): 5.97 G/DL | URIC ACID (72 h, time 3 day): 1.7 mg/dL | ABSOLUTE BASOPHIL (120 h, time 5 day): 0 CELLS/uL | ABSOLUTE EOSINOPHIL (120 h, time 5 day): 0 CELLS/uL | ABSOLUTE LYMPHOCYTE (120 h, time 5 day): 14854.33 CELLS/uL | ABSOLUTE MONOCYTE (120 h, time 5 day): 209.33 CELLS/uL | ABSOLUTE SEGMENTED NEUTROPHIL (120 h, time 5 day): 1369.67 CELLS/uL | BASOPHIL (120 h, time 5 day): 0% | EOSINOPHIL (120 h, time 5 day): 0% | ERYTHROCYTE COUNT (120 h, time 5 day): 5.65 x10E6/uL | HEMATOCRIT (120 h, time 5 day): 34.93% | HEMOGLOBIN (120 h, time 5 day): 13.63 G/DL | LEUKOCYTE COUNT (120 h, time 5 day): 16.43 x10E3/uL | LYMPHOCYTE (120 h, time 5 day): 90.33% | MEAN CORPUSCULAR HEMOGLOBIN (120 h, time 5 day): 24.17 pg | MEAN CORPUSCULAR HEMOGLOBIN CONCENTRATION (120 h, time 5 day): 39.03 G/DL | MEAN CORPUSCULAR VOLUME (120 h, time 5 day): 61.87 fL | MONOCYTE (120 h, time 5 day): 1.33% | NEUTROPHIL (120 h, time 5 day): 8.33% | NUCLEATED RED BLOOD CELLS (120 h, time 5 day): 0 /100WBC | PLATELET COUNT (120 h, time 5 day): 1103 x10E3/uL | ALANINE AMINOTRANSFERASE (120 h, time 5 day): 59 u/L | ALBUMIN (120 h, time 5 day): 4.03 G/DL | ALKALINE PHOSPHATASE (120 h, time 5 day): 331.33 u/L | ASPARTATE AMINOTRANSFERASE (120 h, time 5 day): 90.67 u/L | BLOOD UREA NITROGEN (120 h, time 5 day): 16.67 mg/dL | CARBON DIOXIDE (120 h, time 5 day): 27.33 mmol/L | CHLORIDE (120 h, time 5 day): 100.67 MEQ/L | CHOLESTEROL (120 h, time 5 day): 96.67 mg/dL | CREATINE PHOSPHOKINASE (120 h, time 5 day): 354.33 u/L | CREATININE (120 h, time 5 day): 0.23 mg/dL | GLUCOSE (120 h, time 5 day): 144 mg/dL | LACTATE DEHYDROGENASE (120 h, time 5 day): 305.33 u/L | LIPASE (120 h, time 5 day): 9.33 u/L | PHOSPHORUS (120 h, time 5 day): 12.57 mg/dL | POTASSIUM (120 h, time 5 day): 6.21 MEQ/L | SODIUM (120 h, time 5 day): 143.47 MEQ/L | TOTAL BILIRUBIN (120 h, time 5 day): 0.23 mg/dL | TOTAL PROTEIN (120 h, time 5 day): 5.93 G/DL | URIC ACID (120 h, time 5 day): 1.53 mg/dL
